Source: patent publication US20230002361A1, “2H-INDAZOLE DERIVATIVES AND THEIR USE IN THE TREATMENT OF DISEASE” (BIOGEN MA INC., priority 2019, published 2023)
pIC50: −log10 of the molar value. Where a name gives a salt, the structure may show the parent alone. Read-outs that look alike come from different tables or passages of the source.

Tests used:
[1] = target: T1, human MDR1 transfected MDCK cells (Homo sapiens, UniProt P08183); test: MDR1-MDCK assay (efflux ratio); type: in vitro ADME; settings: 1 μM compound, 120 minutes incubation
T1 construct: host or cells: MDCK cells
In short: (§1)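 Human MDR1-transfected MDCK monolayers, cultured 7 days on transwell inserts with TEER checked, were dosed with compound at 1 μM in HBSS-HEPES. Transport was measured in both A-B and B-A directions. Efflux ratio came from the directional permeabilities, with mass balance also calculated.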

IRAK4 = target: T2, IRAK4 (Homo sapiens, UniProt Q9NWZ3); test: IRAK4 MSD Biochemical Assay (1 mM ATP, 2 h); settings: room temperature; for pIC50: read-out: IRAK4 MSD Biochemical Assay (1 mM ATP, 2 h) IC50; for IC50: IRAK4 MSD Biochemical Assay (1 mM ATP, 2 h) IC50 (nM)
T2 construct: with 0.1 nM IRAK4, 1.6 μM of biotinylated peptide substrate and 10 μM ATP
T2 sequence (Q9NWZ3 1-460): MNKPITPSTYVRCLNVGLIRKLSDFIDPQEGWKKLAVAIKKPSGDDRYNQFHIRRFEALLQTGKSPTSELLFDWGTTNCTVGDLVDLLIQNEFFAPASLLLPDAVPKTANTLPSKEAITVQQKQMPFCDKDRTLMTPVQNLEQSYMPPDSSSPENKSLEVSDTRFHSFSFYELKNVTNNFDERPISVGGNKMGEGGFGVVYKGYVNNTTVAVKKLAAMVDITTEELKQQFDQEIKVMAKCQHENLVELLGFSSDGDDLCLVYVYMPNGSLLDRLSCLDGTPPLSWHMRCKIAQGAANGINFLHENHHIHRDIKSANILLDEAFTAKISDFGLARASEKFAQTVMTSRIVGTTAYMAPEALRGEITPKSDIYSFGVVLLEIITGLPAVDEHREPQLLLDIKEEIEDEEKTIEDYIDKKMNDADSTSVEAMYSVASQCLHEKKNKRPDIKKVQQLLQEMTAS
In short: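 Run with 1 mM ATP and […] for 2 h, then quenched with EDTA, pH 8. The phosphorylated biotinylated peptide was captured on streptavidin plates and detected with anti-phospho-threonine antibody plus Sulfo-Tag secondary by MSD electrochemiluminescence.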

MDR1 (P-gp) = target: T3, MDR1 (P-gp) (Homo sapiens, UniProt P08183); test: MDR1-MDCK assay (efflux ratio); type: in vitro ADME; settings: human, MDCK-MDR1, 1 μM compound, 120 minutes incubation; read-out: MDR1-MDCK Efflux Ratio; (B-A/A-B)
T3 construct: host or cells: MDCK cells
In short: as §1

T3 sequence (P08183 whole entry): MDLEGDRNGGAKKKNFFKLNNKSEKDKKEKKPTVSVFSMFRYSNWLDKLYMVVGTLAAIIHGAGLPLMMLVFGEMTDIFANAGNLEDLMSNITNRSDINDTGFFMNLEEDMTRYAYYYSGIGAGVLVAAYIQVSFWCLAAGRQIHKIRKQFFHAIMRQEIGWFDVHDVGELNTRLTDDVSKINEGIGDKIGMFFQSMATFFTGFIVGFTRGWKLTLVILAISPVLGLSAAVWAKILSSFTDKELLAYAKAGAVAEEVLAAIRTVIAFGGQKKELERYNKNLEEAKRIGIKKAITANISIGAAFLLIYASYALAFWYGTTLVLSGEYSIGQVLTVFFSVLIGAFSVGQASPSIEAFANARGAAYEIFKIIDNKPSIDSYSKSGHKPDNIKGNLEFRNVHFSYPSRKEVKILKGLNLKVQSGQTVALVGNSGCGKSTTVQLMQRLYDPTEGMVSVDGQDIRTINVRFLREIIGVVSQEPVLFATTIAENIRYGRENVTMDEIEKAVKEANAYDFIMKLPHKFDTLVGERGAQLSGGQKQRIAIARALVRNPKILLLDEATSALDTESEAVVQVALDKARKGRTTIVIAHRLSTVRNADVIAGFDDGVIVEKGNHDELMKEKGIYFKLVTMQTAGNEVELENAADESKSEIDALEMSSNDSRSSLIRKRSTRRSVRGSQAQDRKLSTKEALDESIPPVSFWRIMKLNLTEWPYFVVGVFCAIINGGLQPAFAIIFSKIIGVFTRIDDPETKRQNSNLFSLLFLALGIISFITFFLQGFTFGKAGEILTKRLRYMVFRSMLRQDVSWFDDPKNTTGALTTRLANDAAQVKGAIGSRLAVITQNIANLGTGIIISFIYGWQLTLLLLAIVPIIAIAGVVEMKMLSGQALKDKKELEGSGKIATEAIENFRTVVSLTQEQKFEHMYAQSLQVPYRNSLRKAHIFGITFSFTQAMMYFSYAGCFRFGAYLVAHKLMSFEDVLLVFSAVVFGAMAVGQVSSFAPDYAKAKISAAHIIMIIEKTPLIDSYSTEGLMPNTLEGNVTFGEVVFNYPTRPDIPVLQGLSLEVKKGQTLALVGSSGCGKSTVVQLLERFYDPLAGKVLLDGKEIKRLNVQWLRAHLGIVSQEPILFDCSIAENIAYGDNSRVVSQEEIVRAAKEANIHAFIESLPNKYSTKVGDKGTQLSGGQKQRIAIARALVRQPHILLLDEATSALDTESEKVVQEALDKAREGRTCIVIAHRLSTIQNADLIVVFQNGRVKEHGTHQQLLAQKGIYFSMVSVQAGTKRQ
T1 sequence (P08183 whole entry): as above

| Molecule | MDR1-MDCK Efflux Ratio; (B-A/A-B) [1] | pIC50 (IRAK4) | efflux ratio at 120 min, 1 μM (MDR1 (P-gp)) | IC50 (IRAK4) |
| --- | --- | --- | --- | --- |
| 6-Ethoxy-N-(2-methoxypyridin-3-yl)-2-(1-methyl-2-oxabicyclo[2.1.1]hexan-4-yl)-2H-indazole-5-carboxamide tfifluoroacetate [Example 85] | 0.8 | 9.05 |  |  |
| Cc1cnc2c(NC(=O)c3cc4cn(C5CCCOC5)nc4nc3OC3CCC3)cnn2c1 (single isomer, unassigned) [Example 132] | 2.0 | 10.00 |  |  |
| Cc1ccn2ncc(NC(=O)c3cc4cn(C5CCCOC5)nc4nc3OC3CCC3)c2n1 (single isomer, unassigned) [Example 134] | 2.1 | 9.00 |  |  |
| COc1cnc2c(NC(=O)c3cc4cn([C@@]56CC[C@@](C)(C5)OC6)nc4cc3OC(C)C)cnn2c1 (single isomer, unassigned) [Example 135] | 2.3 | 9.22 |  |  |
| COc1cnc2c(NC(=O)c3cc4cn([C@]56CC[C@](C)(C5)OC6)nc4cc3OC(C)C)cnn2c1 (single isomer, unassigned) [Example 136] | 2.3 | 8.85 |  |  |
| CC12CCC(n3cc4cc(C(=O)Nc5cnn6cccnc56)c(OC5CCC5)cc4n3)(CO1)C2 (single isomer, unassigned) [Example 138] | 1.7 | 9.70 |  |  |
| CCOc1cc2nn(C34COC(C)(C3)C4)cc2cc1C(=O)Nc1cccn(C)c1=O [Example 86, 6-Ethoxy-N-(1-methyl-2-oxo-1,2-dihydropyridin-3-yl)-2-(1-methyl-2-oxabicyclo[2.1.1]hexan-4-yl)-2H-indazole-5-carboxamide tfifluoroacetate] |  |  | 1.8 | 3.7 nM |
| COc1cc2nn(C34COC(C)(C3)C4)cc2cc1C(=O)Nc1cccc(C(F)F)n1 [Example 87, N-(6-(difluoromethyl)pyridin-2-yl)-6-methoxy-2-(1-methyl-2-oxabicyclo[2.1.1]hexan-4-yl)-2H-indazole-5-carboxamide trifluoroacetate] |  | 8.62 | 0.7 |  |
| CC(C)Oc1cc2nn(C34COC(C)(C3)C4)cc2cc1C(=O)Nc1cccc(C(F)F)n1 [Example 88, N-(6-(difluoromethyl)pyridin-2-yl)-6-isopropoxy-2-(1-methyl-2-oxabicyclo[2.1.1]hexan-4-yl)-2H-indazole-5-carboxamide trifluoroacetate] |  | 10.00 | 0.5 |  |
| COc1cccc(NC(=O)c2cc3cn(C45COC(C)(C4)C5)nc3cc2OC(C)C)n1 [Example 89, 6-Isopropoxy-N-(6-methoxypyridin-2-yl)-2-(1-methyl-2-oxabicyclo[2.1.1]hexan-4-yl)-2H-indazole-5-carboxamide trifluoroacetae] |  | 9.00 | 0.6 |  |
| COc1ncccc1NC(=O)c1cc2cn(C34COC(C)(C3)C4)nc2cc1OC(C)C [Example 90, 6-Isopropoxy-N-(2-methoxypyridin-3-yl)-2-(1-methyl-2-oxabicyclo[2.1.1]hexan-4-yl)-2H-indazole-5-carboxamide trifluoroacetate] |  | 9.22 | 0.7 |  |
| CC(C)Oc1cc2nn(C34COC(C)(C3)C4)cc2cc1C(=O)Nc1cccn(C(F)F)c1=O [Example 91, N-(1-(difluoromethyl)-2-oxo-1,2-dihydropyridin-3-yl)-6-isopropoxy-2-(1-methyl-2-oxabicyclo[2.1.]hexan-4-yl)-2H-indazole-5-carboxamide tfifluoroacetate] |  |  | 0.8 | 0.3 nM |
| CC(C)Oc1cc2nn(C34COC(C)(C3)C4)cc2cc1C(=O)Nc1ccn(C)n1 [Example 92, 6-Isopropoxy-N-(1-methyl-1H-pyrazol-3-yl)-2-(1-methyl-2-oxabicyclo[2.1.1]hexan-4-yl)-2H-indazole-5-carboxamide] |  | 8.32 | 1.6 |  |
| CC(C)Oc1cc2nn(C34COC(C)(C3)C4)cc2cc1C(=O)Nc1cnn2cccnc12 [Example 93, 6-Isopropoxy-2-(1-methyl-2-oxabicyclo[2.1.1]hexan-4-yl)-N-(pyrazolo[1,5-a]pyrimidin-3-yl)-2H-indazole-5-carboxamide] |  | 9.40 | 1.4 |  |
| Cc1cnc2c(NC(=O)c3cc4cn(C56COC(C)(C5)C6)nc4cc3OC(C)C)cnn2c1 [Example 94, 6-Isopropoxy-2-(1-methyl-2-oxabicyclo[2.1.1]hexan-4-yl)-N-(6-methylpyrazolo[1,5-a]pyrimidin-3-yl)-2H-indazole-5-carboxamide] |  | 8.89 | 1.4 |  |
| CC(C)Oc1cc2nn(C34COC(C)(C3)C4)cc2cc1C(=O)Nc1cnn2cc(Cl)cnc12 [Example 95, N-(6-chloropyrazolo[1,5-a]pyrimidin-3-yl)-6-isopropoxy-2-(1-methyl-2-oxabicyclo[2.1.1]hexan-4-yl)-2H-indazole-5-carboxamide] |  | 9.52 | 0.9 |  |
| CC(C)Oc1cc2nn(C34COC(C)(C3)C4)cc2cc1C(=O)Nc1cnn2cc(F)cnc12 [Example 96, N-(6-fluoropyrazolo[1,5-a]pyrimidine-3-yl)-6-isopropoxy-2-(1-methyl-2-oxabicyclo[2.1.1]hexan-4-yl)-2H-indazole-5-carboxamide trifluoroacetate] |  | 8.85 | 1.6 |  |
| CC(C)Oc1cc2nn(C34CCC(C)(C3)OC4)cc2cc1C(=O)Nc1cccc(C(F)F)n1 (centres unmarked) [Example 97, N-(6-(difluoromethyl)pyridin-2-yl)-6-isopropoxy-2-(1-methyl-2-oxabicyclo[2.2.1]heptan-4-yl)-2H-indazole-5-carboxamide] |  | 9.70 | 1.1 |  |
| CC(C)Oc1cc2nn(C34CCC(C)(C3)OC4)cc2cc1C(=O)Nc1cnn2cccnc12 (centres unmarked) [Example 98, 6-Isopropoxy-2-(1-methyl-2-oxabicyclo[2.2.1]heptan-4-yl)-N-(pyrazolo[1,5-a]pyrimidin-3-yl)-2H-indazole-5-carboxamide] |  | 9.30 | 1 |  |
| Cc1cnc2c(NC(=O)c3cc4cn(C56CCC(C)(C5)OC6)nc4cc3OC(C)C)cnn2c1 (centres unmarked) [Example 99, 6-Isopropoxy-2-(1-methyl-2-oxabicyclo[2.2.1]heptan-4-yl)-N-(6-methylpyrazolo[1,5-a]pyrimidin-3-yl)-2H-indazole-5-carboxamide trifluoroacetate] |  | 9.52 | 1.2 |  |
| CC(C)Oc1cc2nn(C34CCC(C)(C3)OC4)cc2cc1C(=O)Nc1ccn(C)n1 (centres unmarked) [Example 101, 6-Isopropoxy-N-(1-methyl-1H-pyrazol-3-yl)-2-(1-methyl-2-oxabicyclo[2.2.1]heptan-4-yl)-2H-indazole-5-carboxamide] |  | 8.39 | 1.5 |  |
| CC(C)Oc1cc2nn(C34CCC(C)(CC3)OC4)cc2cc1C(=O)Nc1ccn(C)n1 [Example 103, 6-Isopropoxy-N-(1-methyl-1H-pyrazol-3-yl)-2-(1-methyl-2-oxabicyclo[2.2.2]octan-4-yl)-2H-indazole-5-carboxamide] |  | 8.72 | 0.9 |  |
| CC(C)Oc1c(C(=O)Nc2cccc(C(F)F)n2)cc2cn(C3CCOCC3)nc2c1Cl [Example 124, 7-Chloro-N-(6-(difluoromethyl)pyridin-2-yl)-6-isopropoxy-2-(tetrahydro-2H-pyran-4-yl)-2H-indazole-5-carboxamide Trifluoroacetate] |  | 7.70 | 1.1 |  |
| CC12CCC(n3cc4cc(C(=O)Nc5ccn(C(F)F)n5)c(OC5CCC5)cc4n3)(CC1)CO2 [Example 139, 6-cyclobutoxy-N-(1-(difluoromethyl)-1H-pyrazol-3-yl)-2-(1-methyl-2-oxabicyclo[2.2.2]octan-4-yl)-2H-indazole-5-carboxamide] |  | 9.05 | 0.8 |  |
| Cn1ccc(NC(=O)c2cc3cn(C45CCC(C)(CC4)OC5)nc3cc2OC2CCC2)n1 [Example 140, 6-cyclobutoxy-N-(1-methyl-1H-pyrazol-3-yl)-2-(1-methyl-2-oxabicyclo[2.2.2]octan-4-yl)-2H-indazole-5-carboxamide] |  | 9.05 | 0.9 |  |
